Measured values: US20260285924A1, “PEPTIDE THERAPEUTICS” (priority 2023, published 2026)

How the values were obtained:
[1] = system: A-to-I RNA editing reporter (ADAR) in A375; test: A-to-I PepTile (REPTILE) screen: A-to-I editing of dsRNA hairpin reporter by NGS; format: cell-based, human; conditions: for % A-to-I editing (IFNα): IFNα 6000 U/ml for 48 hours; for % A-to-I editing (Basal): no treatment
Excerpt: (§1) FIGS. 12A-12D. A-to-I PepTile screen. (A) Composition of A-to-I PepTile linrary screen, and schematic description of the lentiviral expression vector. (B) Experimental workflow. A375 cells were transduced at low MOI, and then treated or not with IFNα for 48 hrs. RNA was extracted and Peptide_ADARreporter RNA species were amplified and sequenced by NGS. (C) Dot plot of A-to-I PepTile library effect on A-to-I editing with or without IFNα treatment. Red line is the mean A-to-I editing of all the 8088 peptides (>100 read counts) no treatment: 25.75% IFNα: 37.6%. (D) Dot plot of A-to-I PepTile library fitness effect upon IFNα for 48 hrs.
FIGS. 17A-17F show A-to-I RNA Editing PiTile (REPTILE) screen in A375. (A) A-to-I RNA Editing PiTile (REPTILE) library design consist of fragmentation of all known ADAR1, ADAR2 interactors and all human double stranded RNA-binding protein into 40 amino acid long peptide. This library was then cloned into a lentivirus vector that also encode a DNA-encoded RNA loop reporter (A-to-I Rep) that is edited by ADAR proteins in cells at the RNA level. When the construct is expressed, the RNA loop gets edited on a single Adenosine, while the 40-mer peptide get expressed at the protein level. Then we can measure the impact of the peptide expression on the editing rate of the RNA loop reporter by sequencing (NGS and Sanger). (B) Experimental workflow of REPTILE screen in A375 cell line. Cells were transduced with the REPTILE library, and then treated for 48 hours with IFNα. Following the treatment, RNA was harvested, converted into cDNA and amplicon library containing peptide Identity (barcode) linked to the RNA loop reporter were prepared for NGS. (C) Result of the A375 REPTILE screen in the no treatment condition. Each dot represents a unique peptide that is associated with an A-to-I editing rate that was measured on the RNA loop. (D) Result of the A375 REPTILE screen in the IFNα condition. Each dot represents a unique peptide that is associated with an A-to-I editing rate that was measured on the RNA loop. Red line represent the A-to-I editing mean, Dash blue line represent 2 times the standard deviation of the % A-to-I editing across all the datasets. This cutoff was used to defined peptides hits that modulate RNA A-to-I editing. (E) Peptide A-to-I Inhibitor Hits intersection between no treatment (% A-to-I editing<15%) and IFNα (% A-to-I editing<27%) conditions. (F) Peptide A-to-I Enhancers Hits intersection between no treatment (% A-to-I editing>36%) and IFNα (% A-to-I editing>47%) conditions.
Provided herein is a screening methodology to measure the effect of small peptide on A-to-I RNA editing in situ and screen thousands of peptides in a single experiment. First, a library of peptides with the potential of impairing A-to-I editing was designed and built. ADAR enzymes edit RNA only on double-stranded RNA structures and via ADAR's double stranded RNA-Binding Domain (dsRBD). […] The A-to-I PepTile library is composed of 19 Human proteins having dsRBD and 34 known protein-protein interactors of ADAR1/2. All these proteins were tiled into 40-mer peptides every 4 amino acids (FIG. 12A). To measure A-to-I editing, a biosensor consisting of a 71 bp dsRNA hairpin structure that gets A-to-I edited at a rate of 25% in A375 melanoma cells, and ~37% upon IFNα treatment was used. This A-to-I editing reporter is fused with DNA sequence encoding for a peptide from the A-to-I PepTile library. The A-to-I PepTile plasmid pool (10304 elements) was used to produced lentiviruses and transduced A375 cells at a low multiplicity of infection (MOI) (FIG. 12B). A part of the infected cells was treated with IFNα at 6000 U/ml for 48 hours, and then bulk RNA of the basal and treated condition was harvested. RNA was then retrotranscribed into cDNA and sequenced by Next-Generation Sequencing (NGS). […]

[2] = system: A375 cells; test: A-to-I PepTile screen: fitness effect upon IFNα (PepTile abundance untreated vs treated); format: cell-based, human
Excerpt: as §1
Provided herein is a screening methodology to measure the effect of small peptide on A-to-I RNA editing in situ and screen thousands of peptides in a single experiment. First, a library of peptides with the potential of impairing A-to-I editing was designed and built. ADAR enzymes edit RNA only on double-stranded RNA structures and via ADAR's double stranded RNA-Binding Domain (dsRBD). […] The A-to-I PepTile library is composed of 19 Human proteins having dsRBD and 34 known protein-protein interactors of ADAR1/2. All these proteins were tiled into 40-mer peptides every 4 amino acids (FIG. 12A). To measure A-to-I editing, a biosensor consisting of a 71 bp dsRNA hairpin structure that gets A-to-I edited at a rate of 25% in A375 melanoma cells, and ~37% upon IFNα treatment was used. This A-to-I editing reporter is fused with DNA sequence encoding for a peptide from the A-to-I PepTile library. The A-to-I PepTile plasmid pool (10304 elements) was used to produced lentiviruses and transduced A375 cells at a low multiplicity of infection (MOI) (FIG. 12B). A part of the infected cells was treated with IFNα at 6000 U/ml for 48 hours, and then bulk RNA of the basal and treated condition was harvested. RNA was then retrotranscribed into cDNA and sequenced by Next-Generation Sequencing (NGS). With the sequencing data, the A-to-I editing percentage of the RNA reporter for each PepTile is calculated since both elements are encoded on the same transcript. Moreover, with this screen one can also measure the abundance of the PepTiles between the untreated and treated conditions and determine Fitness score associated to every PepTile. To ensure a robust and more accurate A-to-I editing % estimation a cut-off of 100 read counts was set for each PepTile. […] SEQ ID NOs: 2125-2147 are A-to-I peptide inhibitors and SEQ ID NOs: 2148-2210 are A-to-I activators. In addition, 117 PepTiles were identified that either synergize (SEQ ID NOs: 2211-2243) or protect (SEQ ID NOs: 2244-2327) to IFNα-induced cell death (FIG. 12D and Table 5). These PepTiles are potential new therapeutic agents that can modulate the Interferon pathway. They may be beneficial in treating inflammatory conditions and may also enhance the effectiveness of cancer immunotherapy through synergistic effects.

[3] = IFNα 6000 U/ml for 48 hours vs untreated
[4] = A375, PepTile abundance upon IFNα treatment, negative = synthetic lethal, positive = protector

Sequence	% A-to-I editing (IFNα) [1] [%]	% A-to-I editing (Basal) [1] [%]	Fitness Score IFNα [2, 3]	Fitness Score IFNα [2, 4]
MAGPLGPGDAVRRVLECVATGTLLTDGPGLQDPCERDQTDA [ZFR2_207]	51.31	45.30	1.51	
MAPVAAHTVTAAYAPAAATVAVARPAPVAVAAAATAAAYGG [ZFR_18]	49.47	37.25	1.04	
MASLQISPQPRPWRPLPAQAQSAWGPAPAPATYRAEGGWPQ [ADAD2_6]	48.57	40.89	3.12	3.12
MAVEITGAGPGASSVCNSAPGSGPSSPNSSHSTIAENGFTG [HDAC5_75]	55.71	40.79	0.76	
MAVRRVLECVATGTLLTDGPGLQDPCERDQTDALEPMTLQE [ZFR2_209]	50.31	39.66	0.22	
MCLSSHFQELSIYQDQEQRILKFLEELGEGKATTAHDLSGK [ADAR_32]	48.60	38.66	-0.47	
MCSFNDPNAKEMHLKGRRHRLQYKKKVNPDLQVEVKPSIRA [ZFR_148]	48.58	37.77	-1.00	
MCYYVFGDLSGGCESYLVNLSLNDNDGSSGASDQDTLAPLP [DVL2_126]	54.28	43.60	0.54	
MDTLDPELFVECTECGRKMHQICVLHHEIIWPAGFVCDGCL [EP300_310]	26.86	14.29	-1.83	
MDTVISLLTGLSDSQVRAFRHTSTLAAMKLMTALVNVALNL [STAG1_51]	80.32	74.10	-0.15	
MECMHKLGNSCEFRLLSKEGPAHEPKFQYCVAVGAQTFPSV [ADAR_156]	20.83	13.60	0.35	
MEPAKGGEKLQIKKTVSFHLYISTAPCGDGALFDKSCSDRA [ADAR_236]	55.48	39.57	-1.07	
MESTIVEPKQNENRLSDTKPNDNKQNNGRSETTKSRPETPK [NIPBL_167]	52.90	39.35	1.11	
METVSSNSSNNTGNSTTETSSTLEVRTQGPILTASGKNPVM [STRBP_120]	22.73	10.91	0.07	
MFKKRAVEITGAGPGASSVCNSAPGSGPSSPNSSHSTIAEN [HDAC5_74]	55.72	38.94	0.29	
MFPAVCAHSKKQGKQEAADAALRVLIGENEKAERMGFTEVT [ADAR_193]	22.77	11.47	0.57	
MFSSRGINFRTRHLMQDLRMLMPHSKADTKMDRKDKLFVIN [BRIX1_17]	47.02	38.66	1.21	
MGELSSADEKRYRALKRTAERELLMNADVICCTCVGAGDPR [UPF1_147]	24.68	13.30	-0.63	
MGFRGNSGGDYRGPSGGYRGSGGFQRGGGRGAYGTGYFGQG [DHX9_307]	47.59	40.04	1.50	
MGLSPSIDTLDHIRALDRLQEVPHEGPMCDLLWSDPDDRGG [PPP2CB_43]	62.33	46.04	-0.38	
MGPGDAVRRVLECVATGTLLTDGPGLQDPCERDQTDALEPM [ZFR2_208]	51.37	37.66	0.67	
MGRRSSGGGRYRNRSPSDSDMEDYSPPPSLSEVARKMKKKE [NIPBL_285]	47.59	42.29	1.59	
MIIYDEYMMDTVISLLTGLSDSQVRAFRHTSTLAAMKLMTA [STAG1_49]	48.18	44.91	0.55	
MIQDPAQAEAYTIYWLVAALAPLVAAPPRPSQGRLAGREWS [UBE2I_32]	47.26	44.43	-0.02	
MKECVDHLSRDEDEEKLVASLWGAERCLRVLESVTVHNPEN [WAPAL_208]	50.33	50.48	1.55	
MKEHMDAINHDTKELEKMTNRQGMLLKKKEECMKKIRELGS [SMC3_228]	23.22	13.27	-3.54	-3.54
MKKNIAAERKEAKQEKEEADRYQRLKDEVVRAQVQLQLFKL [SMC1A_48]	26.12	11.19	1.61	
MKTPIQVLHEYGMKTKNIPVYECERSDVQIHVPTFTFRVTV [PRKRA_9]	48.95	43.02	-0.21	
MKVPAVPVQWGNCGDTGTRSAGPLRRNYNFIAAVVEKVAPS [HTRA4_36]	25.56	12.55	0.18	
MLANFGPRINDIKRIIQSREREMKDLKEKMNQVEDEVFEEF [SMC1A_186]	56.93	55.39	0.69	
